Legend:
Format in all cases: cell-based
DLD-1 = test: Cancer cell panel, cell viability (resazurin): Colon, DLD-1; conditions: DLD-1 (Colon), 72 hours; labelled drug combined with Example 3
Method: (§1) Cells were plated in 96-well plates and treated for 72 hours with a serially diluted CK2 inhibitor or anti-cancer drug or their combination. The suspension cell lines were treated right after plating, while the adherent cells were allowed to attach overnight prior to the start of the treatment.
(§2) Cell viability was determined by adding resazurin to cell cultures and measuring fluorescence with a plate reader. Relative cell viability was calculated by dividing the cell viability signal from a test sample by that of a non-treated control. […] Bliss Independence and Highest Single Agent models were used to determine if there is synergy, additivity or antagonism between the CK2 inhibitor and an anti-cancer drug.

SK-MEL-3 = test: Cancer cell panel, cell viability (resazurin): Melanoma, SK-MEL-3; conditions: SK-MEL-3 (Melanoma), 72 hours; labelled drug combined with Example 3
Panc-1 = test: Cancer cell panel, cell viability (resazurin): Pancreatic, Panc-1; conditions: Panc-1 (Pancreatic), 72 hours; labelled drug combined with Example 3
Method: as §1, §2

HT29 = test: Cancer cell panel, cell viability (resazurin): Colon, HT29; conditions: 72 hours, labelled drug combined with Example 3
Method: as §1, §2

U266 = test: Cancer cell panel, cell viability (resazurin): multiple myeloma, U266; conditions: 72 hours, labelled drug combined with Example 3
PC3 = test: Cancer cell panel, cell viability (resazurin): Prostate, PC3; conditions: 72 hours, labelled drug combined with Example 3
Method: as §1, §2

H1299 = test: Cancer cell panel, cell viability (resazurin): NSCLC, H1299; conditions: 72 hours, labelled drug combined with Example 3
Daudi = test: Cancer cell panel, cell viability (resazurin): Burkitt's Lymphoma, Daudi; conditions: 72 hours, labelled drug combined with Example 3
H23 = test: Cancer cell panel, cell viability (resazurin): NSCLC, H23; conditions: 72 hours, labelled drug combined with Example 3
OVCAR-3 = test: Cancer cell panel, cell viability (resazurin): Ovarian, OVCAR-3; conditions: OVCAR-3 (Ovarian), 72 hours; labelled drug combined with Example 3
A375 = test: Cancer cell panel, cell viability (resazurin): Melanoma, A375; conditions: 72 hours, labelled drug combined with Example 3
Method: as §1, §2

786-O = test: Cancer cell panel, cell viability (resazurin): Renal, 786-O; conditions: 786-O (Renal), 72 hours; labelled drug combined with Example 3
MOLT4 = test: Cancer cell panel, cell viability (resazurin): Leukemia, MOLT4; conditions: 72 hours, labelled drug combined with Example 3
NAMALWA = test: Cancer cell panel, cell viability (resazurin): Burkitt's Lymphoma, NAMALWA; conditions: 72 hours, labelled drug combined with Example 3
Method: as §1, §2

SKOV-3 = test: Cancer cell panel, cell viability (resazurin): Ovarian, SKOV-3; conditions: SKOV-3 (Ovarian), 72 hours; labelled drug combined with Example 3
ACHN = test: Cancer cell panel, cell viability (resazurin): Renal, ACHN; conditions: 72 hours, labelled drug combined with Example 3
SkBr-3 = test: Cancer cell panel, cell viability (resazurin): Breast, SkBr-3; conditions: SkBr-3 (Breast), 72 hours; labelled drug combined with Example 3
Method: as §1, §2

SK-MEL-24 = test: Cancer cell panel, cell viability (resazurin): Melanoma, SK-MEL-24; conditions: SK-MEL-24 (Melanoma), 72 hours; labelled drug combined with Example 3
BxPC3 = test: Cancer cell panel, cell viability (resazurin): Pancreatic, BxPC3; conditions: 72 hours, labelled drug combined with Example 3
K562 = test: Cancer cell panel, cell viability (resazurin): Leukemia, K562; conditions: 72 hours, labelled drug combined with Example 3
BT-474 = test: Cancer cell panel, cell viability (resazurin): Breast, BT-474; conditions: BT-474 (Breast), 72 hours; labelled drug combined with Example 3
Method: as §1, §2

T47D = test: Cancer cell panel, cell viability (resazurin): Breast, T47D; conditions: 72 hours, labelled drug combined with Example 3
Colo205 = test: Cancer cell panel, cell viability (resazurin): Colon, Colo205; conditions: 72 hours, labelled drug combined with Example 3
WM-115 = test: Cancer cell panel, cell viability (resazurin): Melanoma, WM-115; conditions: WM-115 (Melanoma), 72 hours; labelled drug combined with Example 3
EOL-1 = test: Cancer cell panel, cell viability (resazurin): Leukemia, EOL-1; conditions: EOL-1 (Leukemia), 72 hours; labelled drug combined with Example 3
Method: as §1, §2

H460 = test: Cancer cell panel, cell viability (resazurin): NSCLC, H460; conditions: 72 hours, labelled drug combined with Example 3
Method: as §1, §2

BT-20 = test: Cancer cell panel, cell viability (resazurin): Breast, BT-20; conditions: BT-20 (Breast), 72 hours; labelled drug combined with Example 3
LoVo = test: Cancer cell panel, cell viability (resazurin): Colon, LoVo; conditions: 72 hours, labelled drug combined with Example 3
U87MG = test: Cancer cell panel, cell viability (resazurin): Glioblastoma, U87MG; conditions: 72 hours, labelled drug combined with Example 3
Method: as §1, §2

MDA-MB-231 = test: Cancer cell panel, cell viability (resazurin): Breast, MDA-MB-231; conditions: MDA-MB-231 (Breast), 72 hours; labelled drug combined with Example 3
RPMI8226 = test: Cancer cell panel, cell viability (resazurin): multiple myeloma, RPMI8226; conditions: 72 hours, labelled drug combined with Example 3
H2122 = test: Cancer cell panel, cell viability (resazurin): NSCLC, H2122; conditions: 72 hours, labelled drug combined with Example 3
Caov-3 = test: Cancer cell panel, cell viability (resazurin): Ovarian, Caov-3; conditions: Caov-3 (Ovarian), 72 hours; labelled drug combined with Example 3
A2780 = test: Cancer cell panel, cell viability (resazurin): Ovarian, A2780; conditions: 72 hours, labelled drug combined with Example 3
ZR-75-1 = test: Cancer cell panel, cell viability (resazurin): Breast, ZR-75-1; conditions: ZR-75-1 (Breast), 72 hours; labelled drug combined with Example 3
Method: as §1, §2

H1975 = test: Cancer cell panel, cell viability (resazurin): NSCLC, H1975; conditions: 72 hours, labelled drug combined with Example 3
Method: as §1, §2

MDA-MB-453 = test: Cancer cell panel, cell viability (resazurin): Breast, MDA-MB-453; conditions: MDA-MB-453 (Breast), 72 hours; labelled drug combined with Example 3
HL60 = test: Cancer cell panel, cell viability (resazurin): Leukemia, HL60; conditions: 72 hours, labelled drug combined with Example 3
Caki-1 = test: Cancer cell panel, cell viability (resazurin): Renal, Caki-1; conditions: Caki-1 (Renal), 72 hours; labelled drug combined with Example 3

C#Cc1cccc(Nc2ncnc3cc(OCCOC)c(OCCOC)cc23)c1 [Erlotinib, erlotinib]
synergy, additivity or antagonism of the combination of Example 3 with the anti-cancer drug (DLD-1): + + + (Synergy relative to each agent alone (CI = 0.4-0.74 by Bliss Independence Model))
synergy, additivity or antagonism of the combination of Example 3 with the anti-cancer drug (SK-MEL-3): + (Additive relative to each agent alone (CI = 0.9-1 by Bliss Independence Model and <0.9 by Highest Single Agent Model))
synergy, additivity or antagonism of the combination of Example 3 with the anti-cancer drug (Panc-1): + (Additive relative to each agent alone (CI = 0.9-1 by Bliss Independence Model and <0.9 by Highest Single Agent Model))
synergy, additivity or antagonism of the combination of Example 3 with the anti-cancer drug (HT29): + + (Slight synergy relative to each agent alone (CI = 0.75-0.9 by Bliss Independence Model))
synergy, additivity or antagonism of the combination of Example 3 with the anti-cancer drug (U266): + (Additive relative to each agent alone (CI = 0.9-1 by Bliss Independence Model and <0.9 by Highest Single Agent Model))
synergy, additivity or antagonism of the combination of Example 3 with the anti-cancer drug (PC3): − (Slightly antagonistic relative to each agent alone (CI = 1.1-1.2 by Highest Single Agent Model))
synergy, additivity or antagonism of the combination of Example 3 with the anti-cancer drug (H1299): + (Additive relative to each agent alone (CI = 0.9-1 by Bliss Independence Model and <0.9 by Highest Single Agent Model))
synergy, additivity or antagonism of the combination of Example 3 with the anti-cancer drug (Daudi): + + (Slight synergy relative to each agent alone (CI = 0.75-0.9 by Bliss Independence Model))
synergy, additivity or antagonism of the combination of Example 3 with the anti-cancer drug (H23): + + + (Synergy relative to each agent alone (CI = 0.4-0.74 by Bliss Independence Model))
synergy, additivity or antagonism of the combination of Example 3 with the anti-cancer drug (OVCAR-3): + (Additive relative to each agent alone (CI = 0.9-1 by Bliss Independence Model and <0.9 by Highest Single Agent Model))
synergy, additivity or antagonism of the combination of Example 3 with the anti-cancer drug (A375): + + (Slight synergy relative to each agent alone (CI = 0.75-0.9 by Bliss Independence Model))
synergy, additivity or antagonism of the combination of Example 3 with the anti-cancer drug (786-O): + + (Slight synergy relative to each agent alone (CI = 0.75-0.9 by Bliss Independence Model))
synergy, additivity or antagonism of the combination of Example 3 with the anti-cancer drug (MOLT4): + + (Slight synergy relative to each agent alone (CI = 0.75-0.9 by Bliss Independence Model))
synergy, additivity or antagonism of the combination of Example 3 with the anti-cancer drug (NAMALWA): + (Additive relative to each agent alone (CI = 0.9-1 by Bliss Independence Model and <0.9 by Highest Single Agent Model))
synergy, additivity or antagonism of the combination of Example 3 with the anti-cancer drug (SKOV-3): + + + (Synergy relative to each agent alone (CI = 0.4-0.74 by Bliss Independence Model))
synergy, additivity or antagonism of the combination of Example 3 with the anti-cancer drug (ACHN): + (Additive relative to each agent alone (CI = 0.9-1 by Bliss Independence Model and <0.9 by Highest Single Agent Model))
synergy, additivity or antagonism of the combination of Example 3 with the anti-cancer drug (SkBr-3): + + (Slight synergy relative to each agent alone (CI = 0.75-0.9 by Bliss Independence Model))
synergy, additivity or antagonism of the combination of Example 3 with the anti-cancer drug (SK-MEL-24): + (Additive relative to each agent alone (CI = 0.9-1 by Bliss Independence Model and <0.9 by Highest Single Agent Model))
synergy, additivity or antagonism of the combination of Example 3 with the anti-cancer drug (BxPC3): + + + + (Strong synergy relative to each agent alone (CI < 0.4 by Bliss Independence Model))
synergy, additivity or antagonism of the combination of Example 3 with the anti-cancer drug (K562): + + + (Synergy relative to each agent alone (CI = 0.4-0.74 by Bliss Independence Model))
synergy, additivity or antagonism of the combination of Example 3 with the anti-cancer drug (BT-474): + + (Slight synergy relative to each agent alone (CI = 0.75-0.9 by Bliss Independence Model))
synergy, additivity or antagonism of the combination of Example 3 with the anti-cancer drug (T47D): + (Additive relative to each agent alone (CI = 0.9-1 by Bliss Independence Model and <0.9 by Highest Single Agent Model))
synergy, additivity or antagonism of the combination of Example 3 with the anti-cancer drug (Colo205): + + + (Synergy relative to each agent alone (CI = 0.4-0.74 by Bliss Independence Model))
synergy, additivity or antagonism of the combination of Example 3 with the anti-cancer drug (WM-115): + (Additive relative to each agent alone (CI = 0.9-1 by Bliss Independence Model and <0.9 by Highest Single Agent Model))
synergy, additivity or antagonism of the combination of Example 3 with the anti-cancer drug (EOL-1): + (Additive relative to each agent alone (CI = 0.9-1 by Bliss Independence Model and <0.9 by Highest Single Agent Model))
synergy, additivity or antagonism of the combination of Example 3 with the anti-cancer drug (H460): + + + + (Strong synergy relative to each agent alone (CI < 0.4 by Bliss Independence Model))
synergy, additivity or antagonism of the combination of Example 3 with the anti-cancer drug (BT-20): + + + (Synergy relative to each agent alone (CI = 0.4-0.74 by Bliss Independence Model))
synergy, additivity or antagonism of the combination of Example 3 with the anti-cancer drug (LoVo): + (Additive relative to each agent alone (CI = 0.9-1 by Bliss Independence Model and <0.9 by Highest Single Agent Model))
synergy, additivity or antagonism of the combination of Example 3 with the anti-cancer drug (U87MG): + (Additive relative to each agent alone (CI = 0.9-1 by Bliss Independence Model and <0.9 by Highest Single Agent Model))
synergy, additivity or antagonism of the combination of Example 3 with the anti-cancer drug (MDA-MB-231): + + (Slight synergy relative to each agent alone (CI = 0.75-0.9 by Bliss Independence Model))
synergy, additivity or antagonism of the combination of Example 3 with the anti-cancer drug (RPMI8226): + + + (Synergy relative to each agent alone (CI = 0.4-0.74 by Bliss Independence Model))
synergy, additivity or antagonism of the combination of Example 3 with the anti-cancer drug (H2122): + + + + (Strong synergy relative to each agent alone (CI < 0.4 by Bliss Independence Model))
synergy, additivity or antagonism of the combination of Example 3 with the anti-cancer drug (Caov-3): + + (Slight synergy relative to each agent alone (CI = 0.75-0.9 by Bliss Independence Model))
synergy, additivity or antagonism of the combination of Example 3 with the anti-cancer drug (A2780): + + (Slight synergy relative to each agent alone (CI = 0.75-0.9 by Bliss Independence Model))
synergy, additivity or antagonism of the combination of Example 3 with the anti-cancer drug (ZR-75-1): + (Additive relative to each agent alone (CI = 0.9-1 by Bliss Independence Model and <0.9 by Highest Single Agent Model))
synergy, additivity or antagonism of the combination of Example 3 with the anti-cancer drug (H1975): + + (Slight synergy relative to each agent alone (CI = 0.75-0.9 by Bliss Independence Model))
synergy, additivity or antagonism of the combination of Example 3 with the anti-cancer drug (MDA-MB-453): + + (Slight synergy relative to each agent alone (CI = 0.75-0.9 by Bliss Independence Model))
synergy, additivity or antagonism of the combination of Example 3 with the anti-cancer drug (HL60): + + (Slight synergy relative to each agent alone (CI = 0.75-0.9 by Bliss Independence Model))
synergy, additivity or antagonism of the combination of Example 3 with the anti-cancer drug (Caki-1): + (Additive relative to each agent alone (CI = 0.9-1 by Bliss Independence Model and <0.9 by Highest Single Agent Model))
